Experimental data as given in ChEMBL document CHEMBL1135346, “2,5-Pyridinedicarboxylic acid derivatives as non-nucleosidic reverse transcriptase inhibitors of hepatitis B virus” (Bioorg Med Chem Lett, 2002).
≈ marks a conversion by molar mass, not a printed value.

Tests used:
[1] = Inhibitory activity against Hepatitis B virus reverse transcriptase (HBV-RT) at 1 ug/mL
[2] = Inhibitory activity against Hepatitis B virus reverse transcriptase (HBV-RT) at 0.01 ug/mL
[3] = Inhibitory concentration against Hepatitis B virus reverse transcriptase (HBV-RT)
[4] = Inhibitory activity against Hepatitis B virus reverse transcriptase (HBV-RT) at 0.1 ug/mL
[5] = Inhibitory concentration against Hepatitis B virus-Reverse-transcriptase (HBV-RT)

SMILES	inhibition [1] [%]	inhibition [2] [%]	IC50 [3] [µg/mL]	inhibition [4] [%]	IC50 [5] [µg/mL]
CCNc1cccnc1N1CCN(C(=O)c2ccc(C(=O)NCCO)cn2)CC1	84	52	0.007 (≈ 0.0176 µM)	69	
COCCCNC(=O)c1ccc(C(=O)N2CCN(c3ncccc3NC(C)C)CC2)nc1	63	28	0.13 (≈ 0.295 µM)	53	
COCCNC(=O)c1ccc(C(=O)N2CCN(c3ncccc3NCC(C)C)CC2)nc1	85	52	0.007 (≈ 0.0159 µM)	70	
CC(C)Nc1cccnc1N1CCN(C(=O)c2ccc(C(=O)NCc3ccccn3)cn2)CC1	77	53	0.007 (≈ 0.0152 µM)	62	
CCNc1cccnc1N1CCN(C(=O)c2ccc(C(=O)NC(C)(C)CO)cn2)CC1	72	32	0.068 (≈ 0.159 µM)	56	
CC(C)CNc1cccnc1N1CCN(C(=O)c2ccc(C(=O)NCCCn3ccnc3)cn2)CC1	88	60	0.002 (≈ 0.00408 µM)	72	
CC(C)CNc1cccnc1N1CCN(C(=O)c2ccc(C(=O)NC(C)C)cn2)CC1	90	58	0.005 (≈ 0.0118 µM)	66	
CCNc1cccnc1N1CCN(C(=O)c2ccc(C(=O)NCCOC)cn2)CC1	75	36	0.049 (≈ 0.119 µM)	57	
CC(C)Nc1cccnc1N1CCN(C(=O)c2ccc(C(=O)NCCN3CCOCC3)cn2)CC1	70	49	0.012 (≈ 0.0249 µM)	60	
CC(C)CNc1cccnc1N1CCN(C(=O)c2ccc(C(=O)Nc3ncccc3O)cn2)CC1	71	13	0.17 (≈ 0.357 µM)	46	
CC(C)Nc1cccnc1N1CCN(C(=O)c2ccc(C(=O)NCCCO)cn2)CC1	71	49	0.012 (≈ 0.0281 µM)	60	
COCCCNC(=O)c1ccc(C(=O)N2CCN(c3ncccc3NCC(C)C)CC2)nc1	72	20	0.123 (≈ 0.271 µM)	51	
COC(CNC(=O)c1ccc(C(=O)N2CCN(c3ncccc3NC(C)C)CC2)nc1)OC	87	57	0.005 (≈ 0.011 µM)	65	
Cc1ccn(NC(=O)c2ccc(C(=O)N3CCN(c4ncccc4NC(C)C)CC3)nc2)n1	70	20	0.124 (≈ 0.276 µM)	53	
CC(C)Nc1cccnc1N1CCN(C(=O)c2ccc(C(=O)NCCO)cn2)CC1	54	30	0.261 (≈ 0.633 µM)	51	
CC(C)Nc1cccnc1N1CCN(C(=O)c2ccc(C(=O)NC(C)(C)C)cn2)CC1	88	61	0.002 (≈ 0.00471 µM)	72	
CC(C)CNc1cccnc1N1CCN(C(=O)c2ccc(C(=O)NC(C)(C)CO)cn2)CC1	90	63	0.001 (≈ 0.0022 µM)	71	
COCCNC(=O)c1ccc(C(=O)N2CCN(c3ncccc3NC(C)C)CC2)nc1	80	60	0.001 (≈ 0.00234 µM)	68	

SMILES	inhibition [1] [%]	inhibition [2] [%]	IC50 [3] [µg/mL]	inhibition [4] [%]	IC50 [5] [µg/mL]
CCNc1cccnc1N1CCN(C(=O)c2ccc(C(=O)NC(C)C)cn2)CC1	85	54	0.006 (≈ 0.0151 µM)	67	
Nc1cccnc1N1CCN(C(=O)c2ccc(C(=O)NCCO)cn2)CC1	74	54	0.003 (≈ 0.0081 µM)	67	
CCNc1cccnc1N1CCN(C(=O)c2ccc(C(=O)NCc3ccccn3)cn2)CC1	70	19	0.116 (≈ 0.26 µM)	56	
CC(C)CNc1cccnc1N1CCN(C(=O)c2ccc(C(=O)NC3CC3)cn2)CC1	87	60	0.002 (≈ 0.00473 µM)	71	
CC(C)(CO)NC(=O)c1ccc(C(=O)N2CCN(c3ncccc3N)CC2)nc1	70	38	0.038 (≈ 0.0954 µM)	62	
CC(C)Nc1cccnc1N1CCN(C(=O)c2ccc(C(=O)NC(C)(C)CO)cn2)CC1	80	62		65	0.001 (≈ 0.00227 µM)
CC(C)Nc1cccnc1N1CCN(C(=O)c2ccc(C(=O)NC3CC3)cn2)CC1	62	5	0.237 (≈ 0.58 µM)	51	
Cc1cc(NC(=O)c2ccc(C(=O)N3CCN(c4ncccc4NC(C)C)CC3)nc2)no1	72	25	0.11 (≈ 0.245 µM)	50	
CC(C)NC(=O)c1ccc(C(=O)N2CCN(c3ncccc3NC(C)C)CC2)nc1	65	23	0.149 (≈ 0.363 µM)	51	
CC(C)Nc1cccnc1N1CCN(C(=O)c2ccc(C(=O)NC3CCCC3)cn2)CC1	75	39	0.029 (≈ 0.0664 µM)	65	
Nc1cccnc1N1CCN(C(=O)c2ccc(C(=O)NCc3ccccn3)cn2)CC1	72	22	0.106 (≈ 0.254 µM)	54	
CC(C)CNC(=O)c1ccc(C(=O)N2CCN(c3ncccc3NC(C)C)CC2)nc1	83	61	0.002 (≈ 0.00471 µM)	65	
CC(C)CNc1cccnc1N1CCN(C(=O)c2ccc(C(=O)NCCO)cn2)CC1	86	54	0.009 (≈ 0.0211 µM)	60	
CCNc1cccnc1N1CCN(C(=O)c2ccc(C(=O)NCCN3CCOCC3)cn2)CC1	66	30	0.109 (≈ 0.233 µM)	52	
CC(C)Nc1cccnc1N1CCN(C(=O)c2ccc(C(=O)NCCCn3ccnc3)cn2)CC1	89	65	0.001 (≈ 0.0021 µM)	72	
CC(C)Nc1cccnc1N1CCN(C(=O)c2ccc(C(=O)Nc3ccccn3)cn2)CC1	74	26	0.085 (≈ 0.191 µM)	55	
CC(C)NC(=O)c1ccc(C(=O)N2CCN(c3ncccc3N)CC2)nc1	79	43	0.023 (≈ 0.0624 µM)	62	
